ChEMBL document CHEMBL1201862, “PubChem BioAssay data set” (2004)
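Values below derive from 48-hour exposures of cells grown in 96-well plates, with endpoints linearly interpolated between the two concentrations bracketing the appropriate inhibition level. Here, GI50 denotes the concentration required for 50% inhibition of growth.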 Active and inactive are the calls of the source. No stated cut-off is given here; in the data, active = GI50 up to about 1.1 µM and inactive = higher.

Key:
Experiment in all cases: NCI-60 cell line screen, 48 h
RPMI-8226 = test system: RPMI-8226
U-251 = test system: U-251
SR = test system: SR
EKVX = test system: EKVX
OVCAR-4 = test system: OVCAR-4
LOX IMVI = test system: LOX IMVI
NCI/ADR-RES = test system: NCI/ADR-RES
HCT-116 = test system: HCT-116
CAKI-1 = test system: CAKI-1
SNB-75 = test system: SNB-75
KM12 = test system: KM12
PC-3 = test system: PC-3
Malme-3M = test system: Malme-3M
HL-60 = test system: HL-60
OVCAR-5 = test system: OVCAR-5
HOP-62 = test system: HOP-62
ACHN = test system: ACHN
OVCAR-8 = test system: OVCAR-8
MCF7 = test system: MCF7
NCI-H23 = test system: NCI-H23
OVCAR-3 = test system: OVCAR-3
SF-295 = test system: SF-295
HCC 2998 = test system: HCC 2998
UO-31 = test system: UO-31
CCRF-CEM = test system: CCRF-CEM
HOP-92 = test system: HOP-92
SF-539 = test system: SF-539
NCI-H226 = test system: NCI-H226
NCI-H522 = test system: NCI-H522
M14 = test system: M14
RXF 393 = test system: RXF 393
DU-145 = test system: DU-145
IGROV-1 = test system: IGROV-1
MDA-N = test system: MDA-N
BT-549 = test system: BT-549
UACC-257 = test system: UACC-257
MDA-MB-435 = test system: MDA-MB-435
HCT-15 = test system: HCT-15
SK-MEL-2 = test system: SK-MEL-2
TK-10 = test system: TK-10
SN12C = test system: SN12C
MOLT-4 = test system: MOLT-4
Hs-578T = test system: Hs-578T
A498 = test system: A498
HT-29 = test system: HT-29
MDA-MB-231 = test system: MDA-MB-231
T47D = test system: T47D
SK-OV-3 = test system: SK-OV-3
SK-MEL-5 = test system: SK-MEL-5
A549 = test system: A549
COLO 205 = test system: COLO 205
786-0 = test system: 786-0
UACC-62 = test system: UACC-62
SK-MEL-28 = test system: SK-MEL-28
SF-268 = test system: SF-268
SW-620 = test system: SW-620

SMILES: CC(C)C1=CCC2C(=C1)CCC1C(C)(C(=O)O)CCCC21C (stereo unspecified)
- GI50 (RPMI-8226): 19.9 µM (inactive)
- GI50 (U-251): > 100 µM (inactive)
- GI50 (SR): > 100 µM (inactive)
- GI50 (EKVX): > 100 µM (inactive)
- GI50 (OVCAR-4): 56.8 µM (inactive)
- GI50 (LOX IMVI): > 100 µM (inactive)
- GI50 (NCI/ADR-RES): 76.2 µM (inactive)
- GI50 (HCT-116): > 100 µM (inactive)
- GI50 (CAKI-1): > 100 µM (inactive)
- GI50 (SNB-75): > 100 µM (inactive)
- GI50 (KM12): 92.3 µM (inactive)
- GI50 (PC-3): > 100 µM (inactive)
- GI50 (Malme-3M): > 100 µM (inactive)
- GI50 (HL-60): 14.2 µM (inactive)
- GI50 (OVCAR-5): > 100 µM (inactive)
- GI50 (HOP-62): > 100 µM (inactive)
- GI50 (ACHN): 94.8 µM (inactive)
- GI50 (OVCAR-8): > 100 µM (inactive)
- GI50 (MCF7): > 100 µM (inactive)
- GI50 (NCI-H23): 81.1 µM (inactive)
- GI50 (OVCAR-3): > 100 µM (inactive)
- GI50 (SF-295): 97.7 µM (inactive)
- GI50 (HCC 2998): > 100 µM (inactive)
- GI50 (UO-31): 79.1 µM (inactive)
- GI50 (CCRF-CEM): > 100 µM (inactive)
- GI50 (HOP-92): > 100 µM (inactive)
- GI50 (SF-539): > 100 µM (inactive)
- GI50 (NCI-H226): > 100 µM (inactive)
- GI50 (NCI-H522): > 100 µM (inactive)
- GI50 (M14): > 100 µM (inactive)
- GI50 (RXF 393): > 100 µM (inactive)
- GI50 (DU-145): > 100 µM (inactive)
- GI50 (IGROV-1): > 100 µM (inactive)
- GI50 (MDA-N): > 100 µM (inactive)
- GI50 (BT-549): > 100 µM (inactive)
- GI50 (UACC-257): > 100 µM (inactive)
- GI50 (MDA-MB-435): > 100 µM (inactive)
- GI50 (HCT-15): > 100 µM
- GI50 (SK-MEL-2): > 100 µM (inactive)
- GI50 (TK-10): > 100 µM (inactive)
- GI50 (SN12C): > 100 µM (inactive)
- GI50 (MOLT-4): 63.1 µM (inactive)
- GI50 (Hs-578T): > 100 µM (inactive)
- GI50 (A498): > 100 µM (inactive)
- GI50 (HT-29): 78.5 µM (inactive)
- GI50 (MDA-MB-231): > 100 µM (inactive)
- GI50 (T47D): > 100 µM (inactive)
- GI50 (SK-OV-3): > 100 µM (inactive)
- GI50 (SK-MEL-5): > 100 µM (inactive)
- GI50 (A549): > 100 µM (inactive)
- GI50 (COLO 205): > 100 µM (inactive)
- GI50 (786-0): > 100 µM (inactive)
- GI50 (UACC-62): > 100 µM (inactive)
- GI50 (SK-MEL-28): > 100 µM (inactive)
- GI50 (SF-268): > 100 µM (inactive)
- GI50 (SW-620): > 100 µM (inactive)
